This passage reports IC50 results from patent US8008292B2, “Condensed benzamide compounds and inhibitors of vanilloid receptor subtype 1 (VR1) activity” (Japan Tobacco Inc., priority 2004, dated 2011).

A word on the IC50: it is the point on the concentration scale where inhibition reaches its midpoint.

Structures are written as SMILES.

T1 sequence (Q8NER1 whole entry): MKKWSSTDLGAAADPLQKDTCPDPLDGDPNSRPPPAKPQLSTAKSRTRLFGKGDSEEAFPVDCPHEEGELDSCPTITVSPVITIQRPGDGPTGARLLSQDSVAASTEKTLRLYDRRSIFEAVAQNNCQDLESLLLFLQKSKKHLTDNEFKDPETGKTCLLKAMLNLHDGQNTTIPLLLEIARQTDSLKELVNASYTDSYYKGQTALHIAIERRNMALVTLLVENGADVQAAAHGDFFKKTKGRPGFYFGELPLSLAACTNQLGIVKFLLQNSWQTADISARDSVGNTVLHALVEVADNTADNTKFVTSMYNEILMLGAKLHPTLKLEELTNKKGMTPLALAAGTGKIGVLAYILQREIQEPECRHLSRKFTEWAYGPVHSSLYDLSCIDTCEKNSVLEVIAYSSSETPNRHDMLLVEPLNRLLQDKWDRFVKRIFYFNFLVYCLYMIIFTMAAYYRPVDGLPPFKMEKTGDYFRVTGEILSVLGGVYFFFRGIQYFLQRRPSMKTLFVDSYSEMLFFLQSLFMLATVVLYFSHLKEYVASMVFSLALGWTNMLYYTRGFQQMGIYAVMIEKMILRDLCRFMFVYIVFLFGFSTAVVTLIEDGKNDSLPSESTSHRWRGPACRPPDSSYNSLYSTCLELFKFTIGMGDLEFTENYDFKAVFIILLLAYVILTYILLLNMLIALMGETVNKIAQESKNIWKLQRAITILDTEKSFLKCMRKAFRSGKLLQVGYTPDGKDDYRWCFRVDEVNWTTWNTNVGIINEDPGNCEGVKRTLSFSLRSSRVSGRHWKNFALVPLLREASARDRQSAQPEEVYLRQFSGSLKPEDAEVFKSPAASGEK

The assay addresses T1, human VR1 (Homo sapiens, UniProt Q8NER1).
T1 construct: expressed in transfected cells
In words: Inhibition of Ca2+ entry in cells caused by proton, in rat glioma (C6BU1) cells stably expressing human VR1 (Fura 2 fluorescence). Format: cell-based. The following applies: inhibition of proton-induced Ca2+ entry. Summed up:
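Fura 2-loaded C6BU1 cells in 20 mM MES buffer pH 6.8 with added Ca2+ were preincubated 10 min with compound (final 1 μM to 0.1 nM, 1% DMSO). Proton stimulation brought pH to 5.5. Fluorescence rise was measured, and IC50 was derived from % inhibition versus DMSO control.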
In the case of `CC(O)c1cnc(N2CCOc3c(C(=O)Nc4ccc(C(F)(F)F)cc4)cccc32)c(Cl)c1` (single isomer, unassigned; (+)) [Example 2-12, (+)-N-(4-trifluoromethylphenyl)-4-{3-chloro-5-(1-hydroxyethyl)pyridin-2-yl}-3,4-dihydro-2H-benzo[1,4]oxazine-8-carboxamide], the IC50 was under 0.1 µM. Next, `Cc1ccc(N2c3cccc(C(=O)Nc4ccc(OC(F)(F)F)cc4)c3OC[C@@H]2CO)nc1` [Example 4-07, (S)-4-(5-picoline-2-yl)-3-hydroxylmethyl-N-(4-trifluoromethoxyphenyl)-3,4-dihydro-2H-benzo[1,4]oxazine-8-carboxamide]: under 0.1 µM; `Cc1ccc(N2CCOc3c(C(=O)Nc4ccc(C(C)(C)C)cc4)cccc32)nc1` [Example 1-060]: under 0.1 µM. `Cc1cnc(N2c3cccc(C(=O)Nc4ccc(OC(F)(F)F)cc4)c3OC[C@@H]2CO)s1` [Example 6-1, (S)-3-hydroxymethyl-4-(5-methylthiazol-2-yl)-N-(4-trifluoromethoxyphenyl)-3,4-dihydro-2H-benzo[1,4]oxazine-8-carboxamide] had an IC50 of under 0.1 µM. Then `O=C(Nc1ccc(C(F)(F)F)cc1)c1cccc2c1OC[C@H](CO)N2c1ccc(Cl)cn1` [Example 4-06, (S)-4-(5-chloropyridin-2-yl)-3-hydroxylmethyl-N-(4-trifluoromethylphenyl)-3,4-dihydro-2H-benzo[1,4]oxazine-8-carboxamide], with under 0.1 µM. The compound `CC(C)COc1ccc(NC(=O)c2cccc3c2OCCN3c2ncccc2Cl)cc1` [Example 1-011] returned an IC50 of under 0.1 µM.

The compound `O=C(Nc1ccc(N2CCCCC2)cc1)c1cccc2c1OCCN2c1ncccc1Cl` [Example 1-048] displayed a concentration for half-maximal inhibition (IC50) of under 0.1 µM.

Take `Cc1ccc(N2c3cccc(C(=O)Nc4ccc(Cl)c(C(F)(F)F)c4)c3OC[C@@H]2CO)nc1` [Example 4-37]: the concentration for half-maximal inhibition (IC50) is under 0.1 µM.

The compound `Cc1ccc(N2CCOc3c(C(=O)Nc4ccc(N(CCO)C(C)C)c(F)c4)cccc32)nc1` [Example 1-166] gave an IC50 of 0.1 to 1 µM. Then `CCC[C@H]1CC[C@H](NC(=O)c2cccc3c2OCCN3c2ccc(C)cn2)CC1` [Example 1-192], with under 0.1 µM; and `Cc1ccc(N2CCOc3c(C(=O)N[C@H]4CC[C@H](COC(C)(C)C)CC4)cccc32)nc1` [Example 1-186], with under 0.1 µM.

Turning to `CC(C)(C)[C@H]1CC[C@H](NC(=O)c2cccc3c2OC[C@H](CO)N3c2ncccc2Cl)CC1` [Example 4-14], the IC50 is under 0.1 µM.

The compound `CN(C)c1ccc(NC(=O)c2cccc3c2OC[C@H](CO)N3c2ncccc2Cl)cc1F` [Example 4-12] had an IC50 of under 0.1 µM.

On to `COc1cnc(N2CCOc3c(C(=O)Nc4ccc(OC(F)(F)F)cc4)cccc32)c(Cl)c1` [Example 1-199], for which the IC50 was under 0.1 µM. The compound `COc1ccc(NC(=O)c2cccc3c2OCCN3c2ncccc2Cl)cc1C(F)(F)F` [Example 1-056] returned an IC50 of under 0.1 µM.

The compound `CC1(C)CN(c2ncccc2Cl)c2cccc(C(=O)Nc3ccc(C(C)(C)C)cc3)c2O1` [Example 1-018] registered an IC50 of 0.1 to 1 µM. For `O=C(Nc1cc(F)c(F)c(F)c1)c1cccc2c1OCCN2c1ncc(CO)cc1Cl` [Example 2-25], the half-maximal inhibitory concentration (IC50) was under 0.1 µM. In turn, `O=C(O)c1ccc(N2CCOc3c(C(=O)Nc4ccc(C(F)(F)F)cc4)cccc32)nc1` [Example 1-128] came in with a half-inhibitory concentration (IC50) of 0.1 to 1 µM.

`O=C(Nc1ccc(OCC(F)(F)F)c(Cl)c1)c1cccc2c1OCCN2c1ncc(CO)cc1Cl` [Example 2-31] registered a half-maximal inhibitory concentration (IC50) of under 0.1 µM. Then `CC(C)Oc1ccc(NC(=O)c2cccc3c2OC[C@H](CO)N3c2ncccc2Cl)cc1C(F)(F)F` [Example 4-21], with under 0.1 µM; and `CC(O)c1cnc(N2CCOc3c(C(=O)Nc4ccc(OC(F)(F)F)cc4)cccc32)c(Cl)c1` (stereo not shown) [Example 2-48], with under 0.1 µM; and `O=C(Nc1ccc(OC(F)(F)F)cc1)c1cccc2c1OC[C@H](CO)N2c1ccc(Cl)cn1` [Example 4-05, (S)-4-(5-chloropyridin-2-yl)-3-hydroxylmethyl-N-(4-trifluoromethoxyphenyl)-3,4-dihydro-2H-benzo[1,4]oxazine-8-carboxamide], with under 0.1 µM. Next, `Cc1ccc(NC(=O)c2cccc3c2OC[C@H](CO)N3c2ncccc2Cl)cc1F` [Example 4-13]: under 0.1 µM. Next, `Cc1ccc(N2CCOc3c(C(=O)N[C@H]4CC[C@H](OC5CCCCC5)CC4)cccc32)nc1` [Example 1-107]: under 0.1 µM; `CC(C)Oc1ccc(NC(=O)c2cccc3c2OCCN3c2ncccc2Cl)c(F)c1` [Example 1-052]: under 0.1 µM; `COCc1ccc(N2CCOc3c(C(=O)Nc4ccc(C(F)(F)F)cc4)cccc32)nc1` [Example 1-143]: under 0.1 µM. The compound `O=C(OCc1ccccc1)c1cccnc1N1CCOc2c(C(=O)Nc3ccc(OC(F)(F)F)cc3)cccc21` [Example 1-207] showed an IC50 of 0.1 to 1 µM. Then `Cc1ccc(N2CCOc3c(C(=O)Nc4ccc(Cl)c(N)c4)cccc32)nc1` [Example 1-063], with under 0.1 µM; and `Cc1ccc(N2CCOc3c(C(=O)NCCc4cccc(Cl)c4)cccc32)nc1` [Example 1-126], with under 0.1 µM. Then `O=C(Nc1ccc(C(F)(F)F)cc1)c1cccc2c1OCCN2c1ccc(F)cn1` [Example 1-149], with under 0.1 µM; and `CC(O)c1cnc(N2CCOc3c(C(=O)Nc4ccc(OC(F)(F)F)cc4)cccc32)c(Cl)c1` (single isomer, unassigned; (-)) [Example 2-15, (−)-N-(4-trifluoromethoxyphenyl)-4-{3-chloro-5-(1-hydroxyethyl)pyridin-2-yl}-3,4-dihydro-2H-benzo[1,4]oxazine-8-carboxamide], with under 0.1 µM; and `O=C(Nc1ccc(C(F)(F)F)cc1)c1cccc2c1OC[C@H](CO)N2c1ncccc1Cl` [Example 4-04, (S)-4-(3-chloropyridin-2-yl)-3-hydroxylmethyl-N-(4-trifluoromethylphenyl)-3,4-dihydro-2H-benzo[1,4]oxazine-8-carboxamide], with under 0.1 µM. Compound `CC(C)c1ccc(NC(=O)c2cccc3c2OC[C@H](CO)N3c2ncccc2Cl)cc1` [Example 4-17] showed an IC50 of under 0.1 µM. The compound `CC(O)c1cnc(N2CCOc3c(C(=O)Nc4ccc(OC(F)(F)F)cc4)cccc32)c(Cl)c1` (single isomer, unassigned; (+)) [Example 2-14, (+)-N-(4-trifluoromethoxyphenyl)-4-{3-chloro-5-(1-hydroxyethyl)pyridin-2-yl}-3,4-dihydro-2H-benzo[1,4]oxazine-8-carboxamide] gave a half-maximal inhibitory concentration (IC50) of under 0.1 µM.

In the case of `O=C(Nc1ccc(OC(F)F)cc1)c1cccc2c1OCCN2c1ncc(CO)cc1Cl` [Example 2-44], the concentration for half-maximal inhibition (IC50) was under 0.1 µM. Next, `O=C(Nc1ccc(F)c(C(F)(F)F)c1)c1cccc2c1OC[C@H](CO)N2c1ncccc1Cl` [Example 4-18]: under 0.1 µM.

The compound `CCOC1CCN(c2ccc(NC(=O)c3cccc4c3OCCN4c3ccc(C)cn3)cc2F)CC1` [Example 1-068] registered a concentration for half-maximal inhibition (IC50) of under 0.1 µM. `CC(C)(C)c1ccc(NC(=O)c2cccc3c2OCCN3c2ccc(CO)cn2)cc1` [Example 2-28] had an IC50 of under 0.1 µM. Then `COC(=O)c1cc(NC(=O)c2cccc3c2OCCN3c2ccc(C)cn2)ccc1OCC(C)C` [Example 1-073], with under 0.1 µM; and `COCc1ccc(N2CCOc3c(C(=O)Nc4ccc(C(C)(C)C)cc4)cccc32)nc1` [Example 1-194], with under 0.1 µM.

Compound `O=C(Nc1ccc(Br)c(F)c1)c1cccc2c1OCCN2c1ncc(CO)cc1Cl` [Example 2-41] returned a half-maximal inhibitory concentration (IC50) of under 0.1 µM.

On to `CCOc1ccc(NC(=O)c2cccc3c2OCCN3c2ccc(C)cn2)cc1` [Example 1-160], for which the IC50 is under 0.1 µM. The compound `O=C(Nc1ccc(OC(F)(F)F)cc1)c1cccc2c1OCCN2c1ccc(O)cn1` [Example 1-201] came in with a half-maximal inhibitory concentration (IC50) of 0.1 to 1 µM.

Turning to `Cc1csc(N2CCOc3c(C(=O)Nc4ccc(OC(F)(F)F)cc4)cccc32)n1` [Example 5-5, 4-(4-methylthiazol-2-yl)-N-(4-trifluoromethoxyphenyl)-3,4-dihydro-2H-benzo[1,4]oxazine-8-carboxamide], the IC50 lay in the range of 0.1 to 1 µM.

`Cc1ccc(N2c3cccc(C(=O)Nc4ccc(C(F)(F)F)nc4)c3OC[C@@H]2CO)nc1` [Example 4-27] had an IC50 of under 0.1 µM. Then `O=C(Nc1ccc(N2CCOCC2)cc1)c1cccc2c1OCCN2c1ncccc1Cl` [Example 1-050], with 0.1 to 1 µM. Next, `CC(=O)c1ccc(NC(=O)c2cccc3c2OCCN3c2ncccc2Cl)cc1` [Example 1-039, N-(4-acetylphenyl)-4-(3-chloropyridin-2-yl)-3,4-dihydro-2H-benzo[1,4]oxazine-8-carboxamide]: 0.1 to 1 µM; `O=C(Nc1cccc(C(F)(F)F)c1)c1cccc2c1OCCN2c1ncccc1Cl` [Example 1-027]: under 0.1 µM. Next, `O=C(Nc1ccc(C(F)(F)F)c(F)c1)c1cccc2c1OC[C@H](CO)N2c1ccccc1Cl` [Example 7-06]: under 0.1 µM. For the compound `COC1CCN(c2ccc(NC(=O)c3cccc4c3OCCN4c3ncccc3Cl)cc2F)CC1` [Example 1-101], the IC50 is under 0.1 µM. `O=C(Nc1ccc(Cl)c(Cl)c1)c1cccc2c1OC[C@H](CO)N2c1ncccc1Cl` [Example 4-34] gave a concentration for half-maximal inhibition (IC50) of under 0.1 µM. Next, `N#Cc1ccc(N2CCOc3c(C(=O)Nc4ccc(OC(F)(F)F)cc4)cccc32)nc1` [Example 1-218]: 0.1 to 1 µM. Regarding `COc1ccc(N2CCOc3c(C(=O)Nc4ccc(C(F)(F)F)cc4)cccc32)nc1` [Example 1-147], the IC50 was under 0.1 µM. Compound `O=C(Nc1ccc(OC(F)(F)F)cc1)c1cccc2c1OCCN2c1ncc(CO)cc1Cl` [Example 2-03, N-(4-trifluoromethoxyphenyl)-4-(3-chloro-5-hydroxymethylpyridin-2-yl)-3,4-dihydro-2H-benzo[1,4]oxazine-8-carboxamide] yielded an IC50 of under 0.1 µM. Then `Cc1ccnc(N2CCOc3c(C(=O)Nc4ccc(C(C)(C)C)cc4)cccc32)c1` [Example 1-058, N-(4-tert-butylphenyl)-4-(4-methylpyridin-2-yl)-3,4-dihydro-2H-benzo[1,4]oxazine-8-carboxamide], with 0.1 to 1 µM.
